How the values were obtained:
Human δ-opioid (DOP) = molecular target: T1, Human δ-opioid (DOP) (Homo sapiens, UniProt P41143); assay: Radioligand binding, human δ-opioid (DOP) membranes, FlashPlate, [3H]-Bremazocine; settings: compound at 10 μM, [3H]-Bremazocine; for A1: inhibition of radioligand binding: FlashPlate
T1 construct: purchased Perkin Elmer Biosignal
In short: (§1)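 Cloned human receptor membranes were coated onto FlashPlate wells and incubated with radioligand and compound (added from a 0.5 mM DMSO daughter plate) for 1 hour at room temperature in the dark. Scintillation counting gave percent inhibition, with DMSO defining total and reference ligand defining non-specific binding.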

Human κ-Opioid (KOP) = molecular target: T2, Human κ-Opioid (KOP) (Homo sapiens, UniProt P41145); assay: Radioligand binding, human κ-opioid (KOP) membranes, filtration, [3H]-Diprenorphine; settings: compound at 10 μM, [3H]-Diprenorphine; for A2: inhibition of radioligand binding: filtration
T2 construct: purchased Perkin Elmer Biosignal
In short: (§2)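 Filtration binding on cloned human receptor membranes (1 Unit/well), [125I]-Substance P for NK1 and [3H]-Diprenorphine for KOP, 1 h at room temperature. Filters PEI-presoaked, washed with cold 50 mM Tris-HCl pH 7.4, counted by scintillation; percent inhibition calculated, reference ligand defining non-specific binding.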

Human Melanocortin (MC3) = molecular target: T3, Human Melanocortin (MC3) (Homo sapiens, UniProt P41968); assay: Radioligand binding, human melanocortin MC3 membranes, FlashPlate, [125I]-NDP-αMSH; settings: compound at 10 μM, [125I]-NDP-αMSH; for A3: inhibition of radioligand binding: FlashPlate
T3 construct: purchased Perkin Elmer Biosignal
In short: as §1

Human Melanocortin (MC4) = molecular target: T4, Human Melanocortin (MC4) (Homo sapiens, UniProt P32245); assay: Radioligand binding, human melanocortin MC4 membranes, FlashPlate, [125I]-NDP-αMSH; settings: compound at 10 μM, [125I]-NDP-αMSH; for A4: inhibition of radioligand binding: FlashPlate
T4 construct: purchased Perkin Elmer Biosignal
In short: as §1

Human melanocortin (MC5) = molecular target: T5, Human melanocortin (MC5) (Homo sapiens, UniProt P33032); assay: Radioligand binding, human melanocortin MC5 membranes, FlashPlate, [125I]-NDP-αMSH; settings: compound at 10 μM, [125I]-NDP-αMSH; for A5: inhibition of radioligand binding: FlashPlate
T5 construct: purchased Perkin Elmer Biosignal
In short: as §1

[1] = molecular target: T6, Human melanin-concentrating hormone (MCH1) (Homo sapiens, UniProt Q99705); assay: Radioligand binding, human melanin-concentrating hormone MCH1 membranes, FlashPlate, [125I]-S36057; settings: compound at 10 μM; for A6: inhibition of radioligand binding: [125I]-S36057, FlashPlate
T6 construct: purchased Perkin Elmer Biosignal
In short: as §1

Human μ-opioid (MOP) = molecular target: T7, Human μ-opioid (MOP) (Homo sapiens, UniProt P35372); assay: Radioligand binding, human μ-opioid (MOP) membranes, FlashPlate, [3H]-Naloxone; settings: compound at 10 μM, [3H]-Naloxone; for A7: inhibition of radioligand binding: FlashPlate
T7 construct: purchased Perkin Elmer Biosignal
In short: as §1

Human neurokinin (NK1) = molecular target: T8, Human neurokinin (NK1) (Homo sapiens, UniProt P25103); assay: Radioligand binding, human neurokinin NK1 membranes, filtration, [125I]-Substance P; settings: compound at 10 μM, [125I]-Substance P; for A8: inhibition of radioligand binding: filtration
T8 construct: purchased Perkin Elmer Biosignal
In short: as §2

[2] = molecular target: T9, Human neuropeptide Y (NPY-Y1) (Homo sapiens, UniProt P25929); assay: Radioligand binding, human neuropeptide Y NPY-Y1 membranes, FlashPlate, [125I]-PYY; settings: compound at 10 μM, [125I]-PYY; for A9: inhibition of radioligand binding: FlashPlate
T9 construct: purchased Perkin Elmer Biosignal
T9 sequence (P25929 1-384): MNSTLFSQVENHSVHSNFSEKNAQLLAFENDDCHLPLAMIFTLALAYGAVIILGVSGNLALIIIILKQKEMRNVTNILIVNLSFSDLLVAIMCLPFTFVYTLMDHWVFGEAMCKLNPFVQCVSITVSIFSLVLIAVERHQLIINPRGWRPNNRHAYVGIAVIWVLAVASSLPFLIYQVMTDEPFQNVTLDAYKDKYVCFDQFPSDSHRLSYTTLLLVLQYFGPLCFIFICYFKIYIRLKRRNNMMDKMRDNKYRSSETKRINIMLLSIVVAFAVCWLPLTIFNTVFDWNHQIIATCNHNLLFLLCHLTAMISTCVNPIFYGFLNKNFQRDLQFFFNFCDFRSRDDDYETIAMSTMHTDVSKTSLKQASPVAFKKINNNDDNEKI
In short: as §1

Human opioid (ORL1) = molecular target: T10, Human opioid (ORL1) (Homo sapiens, UniProt P41146); assay: Radioligand binding, human opioid ORL1 membranes, FlashPlate, [125I]-Nociceptin; settings: compound at 10 μM, [125I]-Nociceptin; for A10: inhibition of radioligand binding: FlashPlate
T10 construct: purchased Perkin Elmer Biosignal
In short: as §1

Mouse urotensin (mUR2) = molecular target: T11, Mouse urotensin (mUR2) (Mus musculus, UniProt Q8VIH9); assay: Radioligand binding, mouse urotensin mUR2 membranes, FlashPlate, [125I]-Urotensin II; settings: compound at 10 μM, [125I]-Urotensin II; for A11: inhibition of radioligand binding: FlashPlate
T11 construct: purchased Perkin Elmer Biosignal
T11 sequence (Q8VIH9 1-385): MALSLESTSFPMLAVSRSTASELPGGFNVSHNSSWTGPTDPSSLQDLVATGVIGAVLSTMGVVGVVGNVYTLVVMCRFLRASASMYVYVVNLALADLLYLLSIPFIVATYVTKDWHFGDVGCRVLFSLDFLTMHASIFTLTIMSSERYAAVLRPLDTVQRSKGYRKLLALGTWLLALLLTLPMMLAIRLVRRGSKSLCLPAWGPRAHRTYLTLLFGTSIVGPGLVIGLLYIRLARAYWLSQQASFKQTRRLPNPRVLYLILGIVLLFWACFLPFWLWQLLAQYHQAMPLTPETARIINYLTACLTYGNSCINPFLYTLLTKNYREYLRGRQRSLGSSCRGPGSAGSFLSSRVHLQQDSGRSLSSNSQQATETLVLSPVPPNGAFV
In short: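 Cloned mouse urotensin (mUR2) receptor membranes from Perkin Elmer Biosignal were immobilized in FlashPlate microplates using a proprietary coating. Each well got 19.5 μl buffer, then 0.5 μl of DMSO, reference ligand, or compound. Adding 5 μl of [125I]-Urotensin II, diluted to 5× final concentration in binding buffer, started binding. Plates were sealed with TopSeal-A and incubated 1 hour at room temperature in the dark. Wells were counted for 30 seconds each on a TopCount after a 60-second delay, and percentage inhibition was calculated.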

T10 sequence (P41146 whole entry): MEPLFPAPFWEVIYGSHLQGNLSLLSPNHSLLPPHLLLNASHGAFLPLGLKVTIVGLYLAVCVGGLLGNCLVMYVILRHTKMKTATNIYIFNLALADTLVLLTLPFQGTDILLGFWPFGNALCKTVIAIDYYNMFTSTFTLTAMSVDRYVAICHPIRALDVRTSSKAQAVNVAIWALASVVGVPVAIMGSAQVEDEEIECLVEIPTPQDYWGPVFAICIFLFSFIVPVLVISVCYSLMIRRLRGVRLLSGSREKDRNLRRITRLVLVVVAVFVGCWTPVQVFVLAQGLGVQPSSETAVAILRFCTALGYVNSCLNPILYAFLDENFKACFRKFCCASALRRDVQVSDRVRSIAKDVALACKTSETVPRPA
T1 sequence (P41143 whole entry): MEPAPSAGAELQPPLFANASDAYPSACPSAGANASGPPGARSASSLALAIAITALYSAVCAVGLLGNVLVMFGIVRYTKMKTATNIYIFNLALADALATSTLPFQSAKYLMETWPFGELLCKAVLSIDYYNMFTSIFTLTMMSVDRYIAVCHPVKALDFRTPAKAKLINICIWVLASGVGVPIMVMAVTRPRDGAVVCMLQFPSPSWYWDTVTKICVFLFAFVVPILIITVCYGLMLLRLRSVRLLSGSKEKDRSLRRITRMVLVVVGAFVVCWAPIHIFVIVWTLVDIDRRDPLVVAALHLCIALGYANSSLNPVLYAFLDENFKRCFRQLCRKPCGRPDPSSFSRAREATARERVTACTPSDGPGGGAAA
T6 sequence (Q99705 whole entry): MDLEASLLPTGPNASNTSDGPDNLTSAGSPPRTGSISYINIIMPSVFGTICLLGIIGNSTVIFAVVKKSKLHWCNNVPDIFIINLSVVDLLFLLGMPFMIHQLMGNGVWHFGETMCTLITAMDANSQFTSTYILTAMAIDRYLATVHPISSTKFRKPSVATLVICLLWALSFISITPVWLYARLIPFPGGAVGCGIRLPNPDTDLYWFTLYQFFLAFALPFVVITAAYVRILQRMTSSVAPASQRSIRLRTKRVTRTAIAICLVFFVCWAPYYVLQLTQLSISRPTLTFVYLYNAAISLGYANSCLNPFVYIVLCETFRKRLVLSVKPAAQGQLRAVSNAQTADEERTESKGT
T2 sequence (P41145 whole entry): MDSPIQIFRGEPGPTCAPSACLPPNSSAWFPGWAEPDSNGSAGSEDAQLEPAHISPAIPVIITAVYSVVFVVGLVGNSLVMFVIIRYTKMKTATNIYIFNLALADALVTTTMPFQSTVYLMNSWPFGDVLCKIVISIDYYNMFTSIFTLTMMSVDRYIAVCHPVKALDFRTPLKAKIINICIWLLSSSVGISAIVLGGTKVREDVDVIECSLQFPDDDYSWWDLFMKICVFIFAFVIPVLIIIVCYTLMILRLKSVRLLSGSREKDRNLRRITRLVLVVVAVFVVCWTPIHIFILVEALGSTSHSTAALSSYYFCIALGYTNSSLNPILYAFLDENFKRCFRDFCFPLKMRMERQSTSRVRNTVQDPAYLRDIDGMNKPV
T8 sequence (P25103 whole entry): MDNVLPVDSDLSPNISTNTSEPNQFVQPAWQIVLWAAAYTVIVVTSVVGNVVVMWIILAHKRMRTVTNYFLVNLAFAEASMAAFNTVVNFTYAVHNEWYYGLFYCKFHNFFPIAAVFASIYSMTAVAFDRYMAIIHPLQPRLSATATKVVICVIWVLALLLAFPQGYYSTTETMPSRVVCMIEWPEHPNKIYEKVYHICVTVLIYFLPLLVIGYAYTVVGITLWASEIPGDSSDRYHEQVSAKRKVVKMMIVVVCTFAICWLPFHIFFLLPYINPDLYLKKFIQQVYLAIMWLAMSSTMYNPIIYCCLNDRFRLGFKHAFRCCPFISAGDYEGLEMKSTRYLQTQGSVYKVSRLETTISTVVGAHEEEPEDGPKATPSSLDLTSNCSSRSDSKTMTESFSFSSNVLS
T5 sequence (P33032 whole entry): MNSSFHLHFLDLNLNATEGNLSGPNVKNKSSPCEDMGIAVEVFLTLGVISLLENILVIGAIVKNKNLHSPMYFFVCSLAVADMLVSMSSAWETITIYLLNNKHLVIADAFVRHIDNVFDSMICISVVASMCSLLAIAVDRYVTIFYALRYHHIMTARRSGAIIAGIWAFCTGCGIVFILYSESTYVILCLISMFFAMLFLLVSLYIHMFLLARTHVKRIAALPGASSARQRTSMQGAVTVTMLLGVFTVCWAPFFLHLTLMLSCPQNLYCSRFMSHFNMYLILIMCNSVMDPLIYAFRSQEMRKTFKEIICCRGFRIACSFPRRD
T7 sequence (P35372 whole entry): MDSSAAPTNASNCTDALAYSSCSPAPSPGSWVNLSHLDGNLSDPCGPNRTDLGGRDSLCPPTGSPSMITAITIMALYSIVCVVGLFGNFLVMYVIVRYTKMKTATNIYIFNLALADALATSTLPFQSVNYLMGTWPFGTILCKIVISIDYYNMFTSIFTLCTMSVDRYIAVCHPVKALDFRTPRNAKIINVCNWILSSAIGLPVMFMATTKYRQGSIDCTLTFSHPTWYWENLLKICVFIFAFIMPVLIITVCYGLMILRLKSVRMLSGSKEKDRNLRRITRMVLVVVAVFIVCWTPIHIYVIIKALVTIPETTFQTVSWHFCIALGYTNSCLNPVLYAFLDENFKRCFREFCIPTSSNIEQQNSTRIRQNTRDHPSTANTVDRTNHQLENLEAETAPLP
T4 sequence (P32245 whole entry): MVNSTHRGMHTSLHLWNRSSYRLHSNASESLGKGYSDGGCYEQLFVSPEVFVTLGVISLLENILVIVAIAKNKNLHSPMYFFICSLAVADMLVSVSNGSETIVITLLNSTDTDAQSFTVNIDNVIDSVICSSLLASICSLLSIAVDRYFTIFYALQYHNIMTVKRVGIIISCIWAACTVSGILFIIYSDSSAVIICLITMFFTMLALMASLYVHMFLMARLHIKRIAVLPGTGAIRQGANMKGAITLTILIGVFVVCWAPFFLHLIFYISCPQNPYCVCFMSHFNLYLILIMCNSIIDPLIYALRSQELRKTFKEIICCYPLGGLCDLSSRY
T3 sequence (P41968 whole entry): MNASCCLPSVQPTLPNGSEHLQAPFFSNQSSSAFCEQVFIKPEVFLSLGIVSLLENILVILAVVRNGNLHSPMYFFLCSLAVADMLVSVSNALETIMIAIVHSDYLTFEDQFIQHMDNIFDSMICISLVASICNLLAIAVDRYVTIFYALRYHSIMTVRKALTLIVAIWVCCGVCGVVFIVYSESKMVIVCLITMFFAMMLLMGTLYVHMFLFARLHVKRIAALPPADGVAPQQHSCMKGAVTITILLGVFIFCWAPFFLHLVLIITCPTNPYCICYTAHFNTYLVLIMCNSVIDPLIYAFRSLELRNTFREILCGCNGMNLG

| Structure (SMILES) | A1: inhibition of radioligand binding (Human δ-opioid (DOP)) | A2: inhibition of radioligand binding (Human κ-Opioid (KOP)) | A3: inhibition of radioligand binding (Human Melanocortin (MC3)) | A4: inhibition of radioligand binding (Human Melanocortin (MC4)) | A5: inhibition of radioligand binding (Human melanocortin (MC5)) | A6: inhibition of radioligand binding [1] | A7: inhibition of radioligand binding (Human μ-opioid (MOP)) | A8: inhibition of radioligand binding (Human neurokinin (NK1)) | A9: inhibition of radioligand binding [2] | A10: inhibition of radioligand binding (Human opioid (ORL1)) | A11: inhibition of radioligand binding (Mouse urotensin (mUR2)) | also measured |
| --- | --- | --- | --- | --- | --- | --- | --- | --- | --- | --- | --- | --- |
| N=C(N)NCC(=O)NC1C(OCc2ccc(Cl)cc2)OC(COCc2ccc3ccccc3c2)C(O)C1OCc1ccc(Cl)cc1 (single isomer, unassigned) [compound 507] | – | – | – | – | – | – | – | – | – | – | – | A1: inhibition of radioligand binding, human δ-opioid (DOP) (Human δ-opioid (DOP)): − (“−” indicates less than 50% inhibition at 10 μM); A2: inhibition of radioligand binding, human κ-opioid (KOP) (Human κ-Opioid (KOP); 10 µM): − (“−” indicates less than 50% inhibition at 10 μM); A3: inhibition of radioligand binding, human melanocortin (MC3) (Human Melanocortin (MC3); 10 µM): − (“−” indicates less than 50% inhibition at 10 μM); A4: inhibition of radioligand binding, human melanocortin (MC4) (Human Melanocortin (MC4)): + (“+” indicates greater than 50% inhibition at 10 μM); A5: inhibition of radioligand binding, human melanocortin (MC5) (Human melanocortin (MC5)): + (“+” indicates greater than 50% inhibition at 10 μM); A6: inhibition of radioligand binding, human melanin-concentrating hormone (MCH1) ([1]; [125I]-S36057): + (“+” indicates greater than 50% inhibition at 10 μM); A7: inhibition of radioligand binding, human μ-opioid (MOP) (Human μ-opioid (MOP)): − (“−” indicates less than 50% inhibition at 10 μM); A8: inhibition of radioligand binding, human neurokinin (NK1) (Human neurokinin (NK1)): + (“+” indicates greater than 50% inhibition at 10 μM); A9: inhibition of radioligand binding, human neuropeptide Y (NPY-Y1) [2]: − (“−” indicates less than 50% inhibition at 10 μM); A10: inhibition of radioligand binding, human opioid (ORL1) (Human opioid (ORL1)): + (“+” indicates greater than 50% inhibition at 10 μM); A11: inhibition of radioligand binding, mouse urotensin (mUR2) (Mouse urotensin (mUR2)): − (“−” indicates less than 50% inhibition at 10 μM) |
| CO[C@H]1[C@H](O)[C@@H](COCc2ccccc2)OC(OCc2ccc(Cl)cc2)[C@@H]1NC(=O)CCNC(=N)N (stereo partly shown) [compound 102] | – | – | – | – | – | – | – | – | – | – | – | A1 radioligand binding, percentage inhibition (Human δ-opioid (DOP)): − (“−” indicates less than 50% inhibition at 10 μM); A2 radioligand binding, percentage inhibition (Human κ-Opioid (KOP)): − (“−” indicates less than 50% inhibition at 10 μM); A3 radioligand binding, percentage inhibition (Human Melanocortin (MC3)): − (“−” indicates less than 50% inhibition at 10 μM); A4 radioligand binding, percentage inhibition (Human Melanocortin (MC4)): − (“−” indicates less than 50% inhibition at 10 μM); A5 radioligand binding, percentage inhibition (Human melanocortin (MC5)): + (“+” indicates greater than 50% inhibition at 10 μM); A6 radioligand binding, percentage inhibition ([1]; [125I]-S36057): − (“−” indicates less than 50% inhibition at 10 μM); A7 radioligand binding, percentage inhibition (Human μ-opioid (MOP)): − (“−” indicates less than 50% inhibition at 10 μM); A8 radioligand binding, percentage inhibition (Human neurokinin (NK1)): − (“−” indicates less than 50% inhibition at 10 μM); A9 radioligand binding, percentage inhibition [2]: − (“−” indicates less than 50% inhibition at 10 μM); A10 radioligand binding, percentage inhibition (Human opioid (ORL1)): − (“−” indicates less than 50% inhibition at 10 μM); A11 radioligand binding, percentage inhibition (Mouse urotensin (mUR2)): − (“−” indicates less than 50% inhibition at 10 μM) |
| CSC1OC(COCc2ccccc2)C(O)C(OCc2ccc(Cl)cc2)C1NC(=O)CCCNC(=N)N (stereo not shown) [compound 268] | − (“−” indicates less than 50% inhibition at 10 μM) | − (“−” indicates less than 50% inhibition at 10 μM) | − (“−” indicates less than 50% inhibition at 10 μM) | − (“−” indicates less than 50% inhibition at 10 μM) | + (“+” indicates greater than 50% inhibition at 10 μM) | − (“−” indicates less than 50% inhibition at 10 μM) | − (“−” indicates less than 50% inhibition at 10 μM) | + (“+” indicates greater than 50% inhibition at 10 μM) | − (“−” indicates less than 50% inhibition at 10 μM) | − (“−” indicates less than 50% inhibition at 10 μM) | − (“−” indicates less than 50% inhibition at 10 μM) | – |
| CSC1OC(COCc2ccccc2)C(O)C(OCc2ccccc2)C1NC(=O)CCNC(=N)N (stereo not shown) [compound 251] | − (“−” indicates less than 50% inhibition at 10 μM) | − (“−” indicates less than 50% inhibition at 10 μM) | − (“−” indicates less than 50% inhibition at 10 μM) | − (“−” indicates less than 50% inhibition at 10 μM) | − (“−” indicates less than 50% inhibition at 10 μM) | − (“−” indicates less than 50% inhibition at 10 μM) | − (“−” indicates less than 50% inhibition at 10 μM) | + (“+” indicates greater than 50% inhibition at 10 μM) | − (“−” indicates less than 50% inhibition at 10 μM) | − (“−” indicates less than 50% inhibition at 10 μM) | − (“−” indicates less than 50% inhibition at 10 μM) | – |
| COCC1OC(OCc2ccc(Cl)cc2)C(NC(=O)CCN)C(OCc2ccccc2)C1O (stereo not shown) [compound 195] | − (“−” indicates less than 50% inhibition at 10 μM) | − (“−” indicates less than 50% inhibition at 10 μM) | − (“−” indicates less than 50% inhibition at 10 μM) | − (“−” indicates less than 50% inhibition at 10 μM) | − (“−” indicates less than 50% inhibition at 10 μM) | − (“−” indicates less than 50% inhibition at 10 μM) | − (“−” indicates less than 50% inhibition at 10 μM) | + (“+” indicates greater than 50% inhibition at 10 μM) | − (“−” indicates less than 50% inhibition at 10 μM) | − (“−” indicates less than 50% inhibition at 10 μM) | − (“−” indicates less than 50% inhibition at 10 μM) | – |
